Experimental data from US5582837A, “Alkyl-substituted cellulose-based sustained-release oral drug dosage forms” (priority 1995, dated 1996).

Tested on: isolated colon section
Conditions: rabbit, in vivo
Procedure: Each rabbit was anesthetized using an intramuscular injection of xylazine and ketamine, given at 5-8 mg/kg and 35-40 mg/kg, respectively. The abdomen and the cervical area was then shaved. A surgical cutdown was performed to place a catheter into the jugular vein for maintaining anesthesia throughout the entire exposure period. The maintenance anesthesia was sodium pentobarbitol given at 13 mg/kg as needed. An endotracheal tube was then inserted to facilitate normal respiration.
In the anesthetized animal model a section of the colon, immediately proximal to the cecum, was isolated with the mesenteric vascular system intact. Two ligatures were placed approximately 15-20 cm apart around the colon section. The isolated section was then freed from the remaining intestine by cutting between the ligatures, taking care to leave the vascular and nervous systems intact. A longitudinal incision was made along the entire length of the isolated colon section and the fecal material removed. The isolated colon section is then placed onto a three-cell test chamber which forms the floor of the test cell. The test cell is continuously perfused with Lactated Ringer's solution at a rate of 2.2 ml per minute using a Model 975 Harvard pump. The test chamber is allowed to equilibrate for one hour to maintain a constant temperature of 37° C. (±2° C.). […]
A quantity of the test material was chosen such that the total milligram amount of aspirin delivered over the 6-hour exposure period was equal to the total dose of aspirin provided by the positive control.
After 6 hours of continuous exposure, each rabbit was euthanized using an intravenous injection of sodium pentobarbitol given at approximately 100 mg/kg. The isolated section of exposed colon was removed from the intestine and evaluated for macroscopic evidence of irritation for both degree (0-4) and area (0-6.40 cm^2). […]

`CC(=O)Oc1ccccc1C(=O)O` [Aspirin, aspirin] was tested. Which “Mean Irritation Area” value did it give?
The value was 4.48 cm^2.

And the “Mean Irritation Index” value?
Its value is 17.93.

What about the “Mean Irritation Source” value of the same molecule?
Its value is 4.00.
